Experimental data reported in PubChem BioAssay AID2060906 (Molecular Pharmacology Branch, DTP, NCI, 2025).
One block for each compound: values may come before it.

Test system: 485176-168-R4-J1-PDC complex spheroid growth
Experiment: Anticancer human tumor 485176-168-R4-J1-PDC patient-derived pancreatic adenocarcinoma cell line growth inhibition [RAS]
Conditions: for IC50: curve of first compound; for viability, T/C: stronger effect = lower value
How it was run: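 Multi-cell-type spheroids: tumor cells plus HUVEC endothelial cells and mesenchymal stem cells. RAS-pathway inhibitors were combined with targeted agents, each dosed in half-log steps down from clinical Cmax, or from 10 microM when Cmax was unknown.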
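Note: spheroids exposed to compounds for seven days before readout.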
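Throughout, for viability, T/C: luminescence viability expressed relative to DMSO vehicle wells set as 100%.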

IC50 (second compound 0.0316 µM): > 300 nM
IC50 (second compound 0.1 µM): > 300 nM
IC50 (second compound 0.316 µM): > 300 nM
IC50 (second compound 1 µM): 262 nM
IC50 (second compound 3.16 µM): > 300 nM
IC50 (second compound 10 µM): 114 nM
SMILES: CC1(C)CCC(Nc2ncc(C(F)(F)F)c(-c3c[nH]c4c(P(C)(C)=O)c(C#N)ccc34)n2)CN1 (centres undefined) + C#Cc1c(F)ccc2cc(O)cc(-c3ncc4c(N5CC6CCC(C5)N6)nc(OCC56CCCN5CC(F)C6)nc4c3F)c12
viability, T/C (second compound 0.0316 µM, first compound 0.000949 µM): 106%
viability, T/C (second compound 0.0316 µM, first compound 0.003 µM): 98.2%
viability, T/C (second compound 0.0316 µM, first compound 0.00949 µM): 83.8%
viability, T/C (second compound 0.0316 µM, first compound 0.03 µM): 59.8%
viability, T/C (second compound 0.0316 µM, first compound 0.0949 µM): 61.8%
viability, T/C (second compound 0.0316 µM, first compound 0.3 µM): 56.2%
viability, T/C (second compound 0.1 µM, first compound 0.000949 µM): 98.5%
viability, T/C (second compound 0.1 µM, first compound 0.003 µM): 114%
viability, T/C (second compound 0.1 µM, first compound 0.00949 µM): 79.1%
viability, T/C (second compound 0.1 µM, first compound 0.03 µM): 59.7%
viability, T/C (second compound 0.1 µM, first compound 0.0949 µM): 56.9%
viability, T/C (second compound 0.1 µM, first compound 0.3 µM): 50%
viability, T/C (second compound 0.316 µM, first compound 0.000949 µM): 106%
viability, T/C (second compound 0.316 µM, first compound 0.003 µM): 121%
viability, T/C (second compound 0.316 µM, first compound 0.00949 µM): 84.5%
viability, T/C (second compound 0.316 µM, first compound 0.03 µM): 55.8%
viability, T/C (second compound 0.316 µM, first compound 0.0949 µM): 53.1%
viability, T/C (second compound 0.316 µM, first compound 0.3 µM): 60.5%
viability, T/C (second compound 1 µM, first compound 0.000949 µM): 118%
viability, T/C (second compound 1 µM, first compound 0.003 µM): 96%
viability, T/C (second compound 1 µM, first compound 0.00949 µM): 80.5%
viability, T/C (second compound 1 µM, first compound 0.03 µM): 68.1%
viability, T/C (second compound 1 µM, first compound 0.0949 µM): 53.5%
viability, T/C (second compound 1 µM, first compound 0.3 µM): 50.4%
viability, T/C (second compound 3.16 µM, first compound 0.000949 µM): 107%
viability, T/C (second compound 3.16 µM, first compound 0.003 µM): 97.9%
viability, T/C (second compound 3.16 µM, first compound 0.00949 µM): 84.5%
viability, T/C (second compound 3.16 µM, first compound 0.03 µM): 63.8%
viability, T/C (second compound 3.16 µM, first compound 0.0949 µM): 58.3%
viability, T/C (second compound 3.16 µM, first compound 0.3 µM): 53%
viability, T/C (second compound 10 µM, first compound 0.000949 µM): 99.3%
viability, T/C (second compound 10 µM, first compound 0.003 µM): 89.3%
viability, T/C (second compound 10 µM, first compound 0.00949 µM): 81.2%
viability, T/C (second compound 10 µM, first compound 0.03 µM): 68.7%
viability, T/C (second compound 10 µM, first compound 0.0949 µM): 46.2%
viability, T/C (second compound 10 µM, first compound 0.3 µM): 46.4%

IC50 (second compound 0.00316 µM): > 1000 nM
IC50 (second compound 0.01 µM): > 1000 nM
IC50 (second compound 0.0316 µM): > 1000 nM
IC50 (second compound 0.1 µM): > 1000 nM
IC50 (second compound 0.316 µM): > 1000 nM
IC50 (second compound 1 µM): > 1000 nM
SMILES: C=CC(=O)Nc1cc(Nc2nccc(-c3cn(C)c4ccccc34)n2)c(OC)cc1N(C)CCN(C)C + C=CC(=O)N1CCN(c2nc(OCC3CCCN3C)nc3c(F)c(-c4nc(N)cc(C)c4C(F)(F)F)c(Cl)cc23)C(C)C1
viability, T/C (second compound 0.00316 µM, first compound 0.00316 µM): 101%
viability, T/C (second compound 0.00316 µM, first compound 0.01 µM): 111%
viability, T/C (second compound 0.00316 µM, first compound 0.0316 µM): 102%
viability, T/C (second compound 0.00316 µM, first compound 0.1 µM): 100%
viability, T/C (second compound 0.00316 µM, first compound 0.316 µM): 81.6%
viability, T/C (second compound 0.00316 µM, first compound 1 µM): 75.6%
viability, T/C (second compound 0.01 µM, first compound 0.00316 µM): 94.8%
viability, T/C (second compound 0.01 µM, first compound 0.01 µM): 102%
viability, T/C (second compound 0.01 µM, first compound 0.0316 µM): 109%
viability, T/C (second compound 0.01 µM, first compound 0.1 µM): 104%
viability, T/C (second compound 0.01 µM, first compound 0.316 µM): 96.7%
viability, T/C (second compound 0.01 µM, first compound 1 µM): 67.8%
viability, T/C (second compound 0.0316 µM, first compound 0.00316 µM): 111%
viability, T/C (second compound 0.0316 µM, first compound 0.01 µM): 122%
viability, T/C (second compound 0.0316 µM, first compound 0.0316 µM): 104%
viability, T/C (second compound 0.0316 µM, first compound 0.1 µM): 99.7%
viability, T/C (second compound 0.0316 µM, first compound 0.316 µM): 74.8%
viability, T/C (second compound 0.0316 µM, first compound 1 µM): 73.9%
viability, T/C (second compound 0.1 µM, first compound 0.00316 µM): 95.7%
viability, T/C (second compound 0.1 µM, first compound 0.01 µM): 94.2%
viability, T/C (second compound 0.1 µM, first compound 0.0316 µM): 98.7%
viability, T/C (second compound 0.1 µM, first compound 0.1 µM): 104%
viability, T/C (second compound 0.1 µM, first compound 0.316 µM): 90.9%
viability, T/C (second compound 0.1 µM, first compound 1 µM): 52.5%
viability, T/C (second compound 0.316 µM, first compound 0.00316 µM): 110%
viability, T/C (second compound 0.316 µM, first compound 0.01 µM): 102%
viability, T/C (second compound 0.316 µM, first compound 0.0316 µM): 90.8%
viability, T/C (second compound 0.316 µM, first compound 0.1 µM): 101%
viability, T/C (second compound 0.316 µM, first compound 0.316 µM): 84.7%
viability, T/C (second compound 0.316 µM, first compound 1 µM): 66.9%
viability, T/C (second compound 1 µM, first compound 0.00316 µM): 113%
viability, T/C (second compound 1 µM, first compound 0.01 µM): 99.6%
viability, T/C (second compound 1 µM, first compound 0.0316 µM): 100%
viability, T/C (second compound 1 µM, first compound 0.1 µM): 81%
viability, T/C (second compound 1 µM, first compound 0.316 µM): 75.5%
viability, T/C (second compound 1 µM, first compound 1 µM): 57.9%
